This passage reports IC50 results from patent US20240174690A1, “ANNULATED 2-AMINO-3-CYANO THIOPHENES AND DERIVATIVES FOR THE TREATMENT OF CANCER” (BOEHRINGER INGELHEIM INTERNATIONAL GMBH, priority 2021, published 2024).

The structures appear in SMILES notation.

The target in one assay is KRAS (G12C)::SOS1 (Homo sapiens (Human), UniProt P01116, C118S/C51S/C80L/G12C). Nature of the assay: KRAS::SOS1 AlphaScreen binding assay, KRAS G12C. In outline:
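KRAS 1-169 (biotinylated avi-tag) with GST-SOS1 564-1049 and 10 µM GDP in PBS/0.1% BSA/0.05% Tween 20: WT and G13D 10 nM each with 10 nM SOS1; G12D 10 nM and G12C 7.5 nM with 5 nM SOS1. After 30 min, glutathione acceptor/streptavidin donor beads were added for 60 min at RT in the dark, then AlphaScreen read; 4-parameter IC50.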

In assay [1] the test system is KRAS G12V-dependent Ba/F3 cells. The assay can be described thus: Ba/F3 proliferation assay, KRAS G12V.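 Also: proliferation IC50 in KRAS G12V-dependent Ba/F3 cells read by AlamarBlue.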 It is filed as cell-based. To be noted: Mus musculus, BaF3, 72 h, AlamarBlue. In outline:
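Transforming KRAS G12 mutants replaced IL-3 dependence in retrovirally engineered Ba/F3 cells, with puromycin omitted about ten days before testing. Growth under compound was quantified with an AlamarBlue fluorescent viability stain, in duplicate, by curve fitting.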
In general terms: Resazurin is reduced to fluorescent resorufin, in cell work by metabolically active cells.

The next assay has as its system AsPC-1 cells. The assay can be described thus: AsPC-1 CTG proliferation assay (120 h) (pancreatic cancer, G12D). It is filed as cell-based. Conditions: Homo sapiens, ASPC1. In outline: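 AsPC-1 cells (KRAS G12D), 2000/well in RPMI with 10% FCS, seeded overnight, then treated with compound for 120 h at 37 °C. Viability by CellTiter-Glo luminescence as percent of DMSO control. IC50 from a four-parameter non-linear fit.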

Sequence of KRAS (G12C)::SOS1 (P01116 other isoform, or with tags, fused parts or gaps G12C/C51S/C80L/C118S): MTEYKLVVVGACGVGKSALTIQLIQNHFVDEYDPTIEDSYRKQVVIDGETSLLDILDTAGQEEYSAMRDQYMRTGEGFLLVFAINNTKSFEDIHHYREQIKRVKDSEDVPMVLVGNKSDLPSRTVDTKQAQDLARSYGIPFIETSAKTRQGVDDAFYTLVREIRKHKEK

The term IC50 denotes the concentration that gives 50% inhibition. Read a low IC50 as greater potency in that assay. On to `COCCNC(=O)c1ccn(-c2cc(O[C@@H](C)[C@@H]3[C@@H](OC)CCN3C)nc(-c3onc4c3CCC[C@@]43CCCc4sc(N)c(C#N)c43)n2)n1` [I-55], for which the IC50 at KRAS (G12C)::SOS1 is 0.001 µM; in assay [1], 0.001 µM; in the assay with AsPC-1 cells, 0.565 µM.
Take `C[C@H](Oc1cc(-n2ccnn2)nc(-c2onc3c2CCC[C@@]32CCCc3sc(N)c(C#N)c32)n1)[C@@H]1CCCN1C` [I-32]: the IC50 at KRAS (G12C)::SOS1 was determined as 0.002 µM; in assay [1] it was 0.003 µM; in the assay with AsPC-1 cells, 4.44 µM.
Take `CN[C@H]1CCN(c2cc(O[C@@H](C)[C@@H]3CCCN3C)nc(-c3noc4c3CCC[C@@]43CCCc4sc(N)c(C#N)c43)n2)C1` [II-35]: the results for the 50% inhibitory concentration (IC50) (on KRAS (G12C)::SOS1; in assay [1]; in the assay with AsPC-1 cells) were 0.007 µM, 1.68 µM and 0.713 µM, respectively.
For `C[C@H](Oc1cc(N2CCC(N(C)C)CC2)nc(-c2noc3c2CCC[C@@]32CCCc3sc(N)c(C#N)c32)n1)[C@@H]1CCCN1C` [II-48] the same measures were 0.007 µM, 0.581 µM and 1.49 µM.
For `C[C@H](Oc1cc(-c2ccn3ncnc3c2)nc(-c2onc3c2CCC[C@@]32CCCc3sc(N)c(C#N)c32)n1)[C@@H]1CCCN1C` [I-33] the same measures were 0.002 µM, 0.014 µM and 3.71 µM.
For `Cc1ccc(-c2cc(O[C@@H](C)[C@@H]3CCCN3C)nc(-c3onc4c3CCC[C@@]43CCCc4sc(N)c(C#N)c43)n2)cn1` [I-28] the same measures were 0.003 µM, 0.041 µM and 3.42 µM.
Consider `COCCNC(=O)c1ccn(-c2cc(O[C@@H](C)[C@@H]3CCCN3C)nc(-c3onc4c3CCC[C@@]43CCCc4sc(N)c(C#N)c43)n2)n1` [I-58], for which the IC50 at KRAS (G12C)::SOS1 stood at 0.001 µM; in assay [1], 0.006 µM; in the assay with AsPC-1 cells, 0.696 µM.
For `C[C@H](Oc1cc(N2CCNC3(CCC3)C2)nc(-c2noc3c2CCC[C@@]32CCCc3sc(N)c(C#N)c32)n1)[C@@H]1CCCN1C` [II-40] the same measures were 0.003 µM, 0.456 µM and 0.261 µM.
`[2H]C([2H])([2H])N1C[C@H](F)C[C@H]1[C@H](C)Oc1cc(N2CCN(C)C3(CC3)C2)nc(-c2noc3c2CCC[C@@]32CCCc3sc(N)c(C#N)c32)n1` [II-209]: the half-inhibitory concentration (IC50) on KRAS (G12C)::SOS1 was found to be 0.004 µM; in assay [1], 0.389 µM; in the assay on AsPC-1 cells, 0.059 µM.
For `C[C@H](Oc1cc(N2CC[C@H](N3CCCCC3)C2)nc(-c2noc3c2CCC[C@@]32CCCc3sc(N)c(C#N)c32)n1)[C@@H]1CCCN1C` [II-12] the same measures were 0.008 µM, 0.549 µM and 0.544 µM.
For `C[C@H](Oc1cc(N2CCNC3(COC3)C2)nc(-c2onc3c2CCC[C@@]32CCCc3sc(N)c(C#N)c32)n1)[C@@H]1CCCN1C` [I-4] the same measures were 0.002 µM, 0.134 µM and 0.064 µM.
For the compound `C[C@H](Oc1cc(-n2ccc(C(=O)O)n2)nc(-c2noc3c2CCC[C@@]32CCCc3sc(N)c(C#N)c32)n1)[C@@H]1CCCN1C` [II-24], the IC50 on KRAS (G12C)::SOS1 is 0.002 µM; in assay [1], 8.11 µM; in the assay with AsPC-1 cells, over 25 µM.
For `C[C@H](Oc1cc(N2CCN(C)C3(CC3)C2)nc(-c2onc3c2CCC[C@@]32CCCc3sc(N)c(C#N)c32)n1)[C@@H]1CCCN1C` [I-41] the same measures were 0.006 µM, 0.445 µM and 0.297 µM.
Take `C[C@H]1CN(C)CCCN1c1cc(N2CC[C@H](N(C)C)C2)nc(-c2noc3c2CCC[C@@]32CCCc3sc(N)c(C#N)c32)n1` [II-16]: the IC50 at KRAS (G12C)::SOS1 was found to be 0.074 µM; in assay [1], 1.64 µM; in the assay with AsPC-1 cells, 1.92 µM.
With `C[C@H](Oc1cc(N2CCN(CCO)CC2)nc(-c2noc3c2CCC[C@@]32CCCc3sc(N)c(C#N)c32)n1)[C@@H]1CCCN1C` [II-8], the results for the IC50 (at KRAS (G12C)::SOS1; in assay [1]; in the assay on AsPC-1 cells) were 0.003 µM, 0.316 µM and 2.73 µM, respectively.
On to `C[C@H](Oc1cc(-n2ccc(C(=O)N[C@@H]3CCOC3)n2)nc(-c2onc3c2CCC[C@@]32CCCc3sc(N)c(C#N)c32)n1)[C@@H]1CCCN1C` [I-56], for which the values for the IC50 (at KRAS (G12C)::SOS1; in assay [1]; in the assay on AsPC-1 cells) were 0.002 µM, 0.004 µM and 0.695 µM, respectively.
Consider `C[C@H](Oc1cc(N2CCNC3(COC3)C2)nc(-c2noc3c2CCC[C@@]32CCCc3sc(N)c(C#N)c32)n1)[C@@H]1CCCN1C` [II-31], for which the IC50 is 0.002 µM at KRAS (G12C)::SOS1, 0.065 µM in assay [1] and 0.042 µM in the assay with AsPC-1 cells.
Turning to `C[C@H](Oc1cc([C@H]2CCN(C)C2)nc(-c2noc3c2CCC[C@@]32CCCc3sc(N)c(C#N)c32)n1)[C@@H]1CCCN1C` [II-38], the IC50 on KRAS (G12C)::SOS1 came out at 0.002 µM; in assay [1], 0.056 µM; with AsPC-1 cells, 0.213 µM.
On the same counts, the results for `CO[C@H]1CCN(C)[C@@H]1[C@H](C)Oc1cc(-n2ccc(CC(=O)NC(C)C)n2)nc(-c2onc3c2CCC[C@@]32CCCc3sc(N)c(C#N)c32)n1` [I-48] are 0.002 µM, 0.004 µM and 0.384 µM.
Turning to `C[C@H](NC(=O)c1ccn(-c2cc(O[C@@H](C)[C@@H]3CCCN3C)nc(-c3onc4c3CCC[C@@]43CCCc4sc(N)c(C#N)c43)n2)n1)c1ccccn1` [I-59], the concentration for half-maximal inhibition (IC50) on KRAS (G12C)::SOS1 came to 0.001 µM; in assay [1], 0.001 µM; in the assay with AsPC-1 cells, 0.444 µM.
Regarding `C[C@H](Oc1cc(N2CCN(C)C3(COC3)C2)nc(-c2onc3c2CCC[C@@]32CCCc3sc(N)c(C#N)c32)n1)[C@@H]1C[C@@H](F)CN1C` [I-37], the IC50 was 0.002 µM on KRAS (G12C)::SOS1, 1.34 µM in assay [1] and 0.609 µM in the assay on AsPC-1 cells.
For `C[C@H](Oc1cc(-c2cnsc2)nc(-c2onc3c2CCC[C@@]32CCCc3sc(N)c(C#N)c32)n1)[C@@H]1CCCN1C` [I-27] the same measures were 0.002 µM, 0.007 µM and 2.12 µM.
Consider `C[C@H](Oc1cc(-c2ccn(C[C@@H]3CCCO3)n2)nc(-c2noc3c2CCC[C@@]32CCCc3sc(N)c(C#N)c32)n1)[C@@H]1CCCN1C` [II-43], for which the IC50 on KRAS (G12C)::SOS1 worked out at 0.001 µM; in assay [1], 0.008 µM; with AsPC-1 cells it was 2.05 µM.
For `C[C@H](Oc1cc(-n2ccc(C(=O)NC3(C)COC3)n2)nc(-c2noc3c2CCC[C@@]32CCCc3sc(N)c(C#N)c32)n1)[C@@H]1CCCN1C` [II-26] the same measures were 0.001 µM, 0.003 µM and 1.38 µM.
On the same counts, the results for `C[C@H](Oc1cc(-c2ccn(C[C@@H](C)O)n2)nc(-c2onc3c2CCC[C@@]32CCCc3sc(N)c(C#N)c32)n1)[C@@H]1CCCN1C` [I-30] are 0.002 µM, 0.008 µM and 4.57 µM.
On the same counts, the results for `CO[C@H]1CCN(C)[C@@H]1[C@H](C)Oc1cc(-n2ccc(C(=O)N[C@@H]3CCOC3)n2)nc(-c2onc3c2CCC[C@@]32CCCc3sc(N)c(C#N)c32)n1` [I-53] are 0.001 µM, 0.001 µM and 0.414 µM.
In the case of `C[C@H](Oc1cc(-n2ccc(C(=O)N[C@H]3CCOC3)n2)nc(-c2onc3c2CCC[C@@]32CCCc3sc(N)c(C#N)c32)n1)[C@@H]1CCCN1C` [I-57], the IC50 at KRAS (G12C)::SOS1 worked out at 0.002 µM; in assay [1], 0.001 µM; in the assay on AsPC-1 cells, 0.278 µM.
Consider `C[C@H](Oc1cc(N2C[C@@H](N(C)C)[C@@H](F)C2)nc(-c2noc3c2CCC[C@@]32CCCc3sc(N)c(C#N)c32)n1)[C@@H]1CCCN1C` [II-11], for which the half-maximal inhibitory concentration (IC50) on KRAS (G12C)::SOS1 came out at 0.006 µM; in assay [1], 0.324 µM; in the assay on AsPC-1 cells, 1.43 µM.
For `C[C@H](Oc1cc(C2CCCO2)nc(-c2noc3c2CCC[C@@]32CCCc3sc(N)c(C#N)c32)n1)[C@@H]1CCCN1C` (stereo partly drawn) [II-44] the same measures were 0.002 µM, 0.014 µM and 2.16 µM.
For `C[C@H](Oc1cc(-c2ccn(C3COC3)n2)nc(-c2onc3c2CCC[C@@]32CCCc3sc(N)c(C#N)c32)n1)[C@@H]1CCCN1C` [I-34] the same measures were 0.002 µM, 0.014 µM and 4.15 µM.
For `C[C@@H]1CN(c2cc(O[C@@H](C)[C@@H]3CCCN3C)nc(-c3noc4c3CCC[C@@]43CCCc4sc(N)c(C#N)c43)n2)C[C@H](C)N1` [II-36] the same measures were 0.002 µM, 0.39 µM and 0.99 µM.
As to `C[C@H](Oc1cc(-c2ccn(C)n2)nc(-c2noc3c2CCC[C@@]32CCCc3sc(N)c(C#N)c32)n1)[C@@H]1C[C@@H](F)CN1C` [II-27], the results for the IC50 (on KRAS (G12C)::SOS1; in assay [1]; with AsPC-1 cells) were 0.002 µM, 0.016 µM and 4.11 µM, respectively.
Take `C[C@H](Oc1cc(N2CC[C@H](N(C)C)C2)nc(-c2noc3c2CCC[C@@]32CCCc3sc(N)c(C#N)c32)n1)[C@@H]1C[C@@H](F)CN1C` [II-15]: the half-inhibitory concentration (IC50) turned out to be 0.007 µM at KRAS (G12C)::SOS1, 0.34 µM in assay [1] and 0.22 µM in the assay with AsPC-1 cells.
For `[2H]C([2H])([2H])N1C[C@H](F)C[C@H]1[C@H](C)Oc1cc(N2CCNC3(CC3)C2)nc(-c2noc3c2CCC[C@@]32CCCc3sc(N)c(C#N)c32)n1` [II-208], the half-maximal inhibitory concentration (IC50) on KRAS (G12C)::SOS1 is 0.001 µM; in assay [1], 0.166 µM; in the assay on AsPC-1 cells, 0.015 µM.
On the same counts, the results for `C[C@H](Oc1cc(N2C[C@H](C)NC3(CC3)C2)nc(-c2noc3c2CCC[C@@]32CCCc3sc(N)c(C#N)c32)n1)[C@@H]1C[C@@H](F)CN1C` [II-18] are 0.003 µM, 0.438 µM and 0.045 µM.
